Values of other authors in US20020107236A1, “Methods of treating sexual dysfunction associated with hypertension” (priority 2000, published 2002).

Tested on: male rats
Settings: used for treatment of hypertensive disorder in male rats

CCCCc1nc(Cl)c(CO)n1Cc1ccc(-c2ccccc2-c2nn[nH]n2)cc1 [losartan]
preservation of sexual function: advantage in preservation of sexual function
